Results published in patent publication US6087336A, “Peptide derivatives useful in treating autoimmune diseases” (Zeneca Limited, priority 1996, dated 2000).

What was measured:
[1] = tested on: B52.24 murine T cell hybridoma line; experiment: Test B: inhibition of T cell activation in vitro; type: cell-based; conditions: compared with the other isolated diastereomer
Source text: Test B: Inhibition of T cell activation in vitro.
. B52.24 was produced by the fusion of lymph node T cells taken from FHA307-320 immunised HLA-DR4Dw4 transgenic mice (International Patent Application, Publication No WO95/03331) with the BW5147 murine T cell lymphoma line (White et al (1989) J. Immunol. 143, 1822) as outlined in Woods et al (1994) J. Exp. Med. 180, 173-181 and following the general methods for the generation of T cell hybridomas given in Current Protocols in Immunology, Volume 2, 7.21.
Inhibitor peptides at concentrations between 100 and 0.1 μM (or lower) were mixed with the antigenic peptide FHA307-320 in either varying concentrations between 100 and 0.1 μM or at a fixed concentration of 10 μM by dilution in RPM1-1640 culture media (Gibco) in a 96-well mictrotitre plate (Nunc) in a final volume of 100 μl. […]
The culture plates containing supernatants to be assayed were left at room temperature to thaw and […] of supernatant was transferred to fresh 96 round bottomed well plates. […] The contents of each plate were harvested onto glass fibre filter mats and the radioactivity measured using a betaplate scintillation counter.

[2] = target: T1, HLA-DR4Dw4 (Homo sapiens, UniProt P01903+P01911, A100K/A169T/F76Y/I96L/K127E/L162R/M171V/N62H/P40V/Q125Y/R42H/S133A/S149N/S66Y/V115G/V209L/W38E); experiment: Test A: purified HLA-DR peptide in vitro binding assay; conditions: compared with the other isolated diastereomer
T1 construct: a cDNA encoding the β chain is cloned into the transfer vector pAcUW1; made in house; host or cells: Sf21 insect cells, double-recombinant baculovirus
Method: Test A: Purified HLA-DR peptide in vitro binding assay. […]. At the end of the incubation period 100 μl of the incubate is transferred to Enzyme Linked lmmunoSorbant Assay (ELISA) plates (Nunc) previously coated with an anti-MHC antibody (L243--American Type Culture Collection (ATCC) HB55 --as described in Lampson and Levy (1980) J. Immunol. 125, 293-299) at a concentration of 10 μg/ml for 1 hour at room temperature and blocked thereafter for 1 hour with 1% bovine serum albumin (BSA) in PBS and 0.05% Tween 20. After a further 1 hour period the unbound peptide is washed away and a 1/4,000 dilution of streptavidin peroxidase (Sigma) in PBS with 0.01% of a suitable detergent such as NP40 (Sigma) added for 2 hours at room temperature. After further washing, tetramethylbenzidene (TMB) substrate solution (1 TMB tablet (Sigma) in 10 mIs of 0.1 M citrate/acetate buffer, pH 6.0 with 36 μl urea hydrogen peroxide (UHPO) (Fluka)) is added to each of the plates. The reaction is stopped by adding 2M sulphuric acid (10 μl per well) and the absorbance read at 450 nm to quantify the amount of peptide bound. The inhibitory activity of peptides is obtained by plotting absorbance against concentration.
The purified HLA-DR4Dw4 may be obtained as follows:
(i) Expression of HLA-DR in the Baculovirus System
The expression of recombinant proteins in insect cells from baculovirus vectors is an established procedure to obtain high yields of recombinant protein [Luckow, V A & Summers, M D, 1988, Biotechnology, 6, 47-551]. To enable the expression of the heterodimeric HLA-DR, eg. HLA-DR4Dw4, from a single recombinant baculovirus vector (as opposed to having separate recombinant viruses for the α and β chains and then doing a co-infection), a double-recombinant baculovirus is constructed which carries both the α and β chains.
A cDNA encoding the sequence of the α polypeptide is cloned into the transfer vector pacYM1 [Matsuura, Y; Possee, R D; Overton, H A & Bishop, D H L, 1987, J. Gen. […] The molecular genetic techniques used to construct the recombinant vectors are likewise readily available in the literature and are most fully described by Sambrook, J; Fritsch, E F & Maniatis T, (1989) [Molecular Cloning. […]
To create the double-recombinant baculovirus, a cDNA encoding the β chain is cloned into the transfer vector pAcUW1 [Weyer, U; Knight, S & Possee, R D, 1990, J. Gen. […] Double-recombinant viruses are detected by spotting insect cells, infected with randomly picked viruses from the transfection, onto membranes and reacting them with a monoclonal antibody, e.g. L243, which specifically recognises the HLA-DR heterodimer. Binding of the antibody to Sf21 insect cells is detected using standard flow cytometry techniques, readily available in the literature. […]

Phv-Ala-Ala-Ala-Lys-Val-III-Ala-Pip-NH2 [more polar diastereomer]
relative potency of diastereomers in Test B [1]: more potent than the less polar diastereomer
relative potency of diastereomers in Test A [2]: more potent than the less polar diastereomer
